# Assay results reported in ChEMBL document CHEMBL4396909, “Evolution of HIV-1 reverse transcriptase and integrase dual inhibitors: Recent advances and developments” (Eur J Med Chem, 2019).
# Tested on: Human immunodeficiency virus 1
# Assay: Antiviral activity against HIV-1 infected in HEK293 cells preincubated for 4 hrs with cell followed by viral infection measured after 24 hrs by luciferase reporter gene assay
# Format: functional, organism-based
# Conditions: Human immunodeficiency virus 1, HEK293
smiles,measurement,value
O=C(O)C(=O)CC(=O)c1cc(OCc2ccccc2)cc(OCc2ccccc2)c1,IC50,480 nM
